Test results taken from US6627635B2, “Method of preventing abuse of opioid dosage forms” (priority 1997, dated 2003).

Columns and labels:
[1] = in comparison to a 15 mg dose of hydrocodone
Source text: In certain preferred embodiments, the opioid agonist is hydrocodone.

[2] = test system: effects of morphine-like opioid agonist; conditions: cited from earlier work
[3] = pKa values of the drug substances
[4] = Simulated extractability of naltrexone HCl from hydrocodone bitartrate CR AcroContin tablets, 4 tablets in 25 mL solvent (HPLC recovery); conditions: for solubility in acetone: poor recoveries; for dissolution in the solvents: all of the solvents except acetone
[5] = Simulated extractability of naltrexone HCl from hydrocodone bitartrate CR AcroContin tablets, 5 tablets in 5 mL solvent (HPLC recovery); assay type: physicochemical; conditions: for % Precipitated: 5 tablets in 5 mL; for extractable from the tablets at the higher pH's: high pH (substantially greater than pH 10, preferably above pH 11)
[6] = after oral doses; cited from earlier work
[7] = Extractability of naltrexone HCl (1.5 mg) from oxycodone HCl (15 mg), 5 tablets/5 mL solvent; assay type: physicochemical
[8] = hydrochloride salt; cited from earlier work
mu over delta sites = conditions: cited from earlier work
[9] = cited from earlier work

COc1ccc2c3c1O[C@H]1[C@@H](O)C=C[C@H]4[C@@H](C2)N(C)CC[C@@]341 [Codeine]
Equianalgesic Doses of Opioids, Calculated Dose [1]: 90.0 mg

Meperidine
Equianalgesic Doses of Opioids, Calculated Dose [1]: 135.0 mg

C=CCN1CC[C@]23c4c5ccc(O)c4O[C@H]2C(=O)CC[C@@]3(O)[C@H]1C5 [naloxone]
antagonism of morphine-like opioid agonist effects ([2]; 0.4-0.8 mg intramuscularly or intravenously in man): prevent or promptly reverse the effects of morphine-like opioid agonist
block of the effect of 25 mg of heroin ([2]; one mg intravenously): completely block

COc1ccc2c3c1OC1C(=O)CC[C@H]4[C@@H](C2)N(C)CC[C@]314 (some centres unmarked) [Hydrocodone, 4,5-epoxy-3-methoxy-17-methylmorphinan-6-one]
pKa ([3]; at amine functional group): 9.2
solubility in acetone [4]: less soluble
dissolution in the solvents [4]: dissolved completely
% Precipitated ([5]; diluent pH 7.1): 8%
% Precipitated ([5]; diluent pH 8.0): 12%
% Precipitated ([5]; diluent pH 9.0): 27%
% Precipitated ([5]; diluent pH 10.0): 28%
% Precipitated ([5]; diluent pH 11.0): 21%
% Precipitated ([5]; diluent pH 12.0): 83%
% Precipitated ([5]; diluent pH 12.7): 81%
extractable from the tablets at the higher pH's [5]: about 80%
Equianalgesic Doses of Opioids, Calculated Dose [1]: 15.0 mg

C[C@H]1[C@H]2Cc3ccc(O)cc3[C@]1(C)CCN2CC1CC1 [cyclazocine]
duration of action [6]: ~24 h

CCC(=O)C(CC(C)N(C)C)(c1ccccc1)c1ccccc1 (centres unmarked) [Methadone]
Equianalgesic Doses of Opioids, Calculated Dose [1]: 9.0 mg

CN1CC[C@]23CCCC[C@H]2[C@H]1Cc1ccc(O)cc13 [Levorphanol]
Equianalgesic Doses of Opioids, Calculated Dose [1]: 1.8 mg

COc1ccc2c3c1O[C@H]1C(=O)CC[C@@]4(O)[C@@H](C2)N(C)CC[C@]314 [Oxycodone]
% Precipitated ([7]; diluent Ethanol): 13%
% Precipitated ([7]; diluent IPA): 86%
% Precipitated ([7]; diluent Methanol): 13%
% Precipitated ([7]; diluent pH 6.9): 6%
% Precipitated ([7]; diluent pH 8.1): 87%
% Precipitated ([7]; diluent pH 9.4): 98%
% Precipitated ([7]; diluent pH 10.2): 98%
% Precipitated ([7]; diluent pH 11.0): 98%
% Precipitated ([7]; diluent pH 11.9): 98%
% Precipitated ([7]; diluent pH 12.8): 98%
Equianalgesic Doses of Opioids, Calculated Dose [1]: 13.5 mg

O=C1CC[C@@]2(O)[C@H]3Cc4ccc(O)c5c4[C@@]2(CCN3CC2CC2)[C@H]1O5 [Naltrexone]
soluble in water [8]: about 100 mg/cc
pKa ([3]; at amine functional group): 8.4
pKa ([3]; at phenol functional group): 10.3
duration of action [6]: ~24 h
blocking action, receptor preference (mu over delta sites): strong preferential blocking action
solubility in acetone [4]: less soluble
dissolution in the solvents [4]: dissolved completely
protein binding ([9]; in vivo): approximately 21%
oral bioavailability ([9]; oral): 5-40%
extractable from the tablets at the higher pH's [5]: about 10%
extractable from the tablets at the higher pH's ([5]; listed as Naltrexone Hydrochloride): ~10%
